Laboratory results reported in patent US9951025B2, “Halogenopyrazoles as inhibitors of thrombin” (VERSEON CORPORATION, priority 2013, dated 2018).
Non-standard residues stand in square brackets, D forms with d. No end group written: not given here. Oic = O=C(O)[C@@H]1C[C@@H]2CCCC[C@@H]2N1; Phe(4-Me) = Cc1ccc(C[C@H](N)C(=O)O)cc1

Tests used:
[1] = target: T1, Human thrombin (Homo sapiens, UniProt P00734); experiment: thrombin protease inhibition assay, chromogenic substrate S-2238; format: biochemical; conditions: 3 nM human thrombin, 125 μM S-2238, 10 min pre-incubation, RT
T1 construct: purchased Haematologic Technologies Inc
Method: Compounds described herein can be assayed, by a variety of methods known in the art and described herein, for inhibition of biological activity, e.g., protease activity, of a variety of proteins, e.g., thrombin.
The thrombin activity reported herein (e.g., Table A) was obtained as follows. […] Thrombin was assayed in buffer containing 0.05 M Tris (pH 7.4), 0.015 M NaCl and 0.01% PEG-8000. The final concentration of enzyme used was 3 nM thrombin. […] All assays were performed in 96-well microtiter plates at room temperature (RT). […] Inhibitor IC50 values were determined by adding test compound as ten point, three-fold serial dilutions in buffer solution, as known in the art. The plate was read at 10 minutes after substrate addition. The IC50 was calculated by plotting the percent (%) inhibition against compound concentration and fitting the data to a constrained four parameter sigmoidal curve, as known in the art.

[2] = after 7 weeks of administration; cited from earlier work
[3] = tested on: glioma; conditions: systemic use, rat glioma models; cited from earlier work
[4] = tested on: malignant breast tumors; conditions: cited from earlier work
[5] = tested on: lung fibroblasts; conditions: mouse, in vivo; cited from earlier work
[6] = cited from earlier work
[7] = tested on: prostate cancer cell line PC-3; conditions: PC-3, concentration dependent manner; cited from earlier work
[8] = tested on: tumor; conditions: cited from earlier work
[9] = in vivo; cited from earlier work
[10] = tested on: lung metastases; conditions: administered prior to cancer cell inoculation; cited from earlier work
[11] = intrathecal, cited from earlier work

Compound	IC50 [1] [nM]	other results
COc1ccccc1C(=O)n1nc(-c2ccccc2)c(F)c1NCc1ccc(Cl)s1 [Compound 44, N-[(5-chlorothiophen-2-yl)methyl]-4-fluoro-1-(2-methoxybenzoyl)-3-phenyl-1H-pyrazol-5-amine]	< 100	–
COc1ccccc1C(=O)n1nc(NCc2ccc(Cl)s2)c(F)c1C1CCOCC1 [Compound 45, N-[(5-chlorothiophen-2-yl)methyl]-4-fluoro-1-(2-methoxybenzoyl)-5-(oxan-4-yl)-1H-pyrazol-3-amine]	> 1000	–
CC1(C(=O)n2nc(-c3ccccc3)c(F)c2NCc2ccc(Cl)s2)COC1 [Compound 46, N-[(5-chlorothiophen-2-yl)methyl]-4-fluoro-1-(3-methyloxetane-3-carbonyl)-3-phenyl-1H-pyrazol-5-amine]	> 1000	–
CC1(C(=O)n2nc(-c3ccccc3)c(F)c2NCc2ccc(Cl)s2)CCOCC1 [Compound 48, N-[(5-chlorothiophen-2-yl)methyl]-4-fluoro-1-(4-methyloxane-4-carbonyl)-3-phenyl-1H-pyrazol-5-amine]	< 100	–
O=C(c1ccoc1)n1nc(C2CCOCC2)c(F)c1NCc1ccc(Cl)s1 [Compound 49, N-[(5-chlorothiophen-2-yl)methyl]-4-fluoro-1-(furan-3-carbonyl)-3-(oxan-4-yl)-1H-pyrazol-5-amine]	< 100	–
CC(=O)Nc1c(-c2ccccc2)cccc1S(=O)(=O)N[C@@H](CCCc1ccc(N)cn1)C(=O)N1CCC(=C(F)F)CC1 [SSR182289]	–	liver fibrogenesis [2]: decreased liver fibrogenesis significantly
CC1CNc2c(cccc2S(=O)(=O)N[C@@H](CCCNC(=N)N)C(=O)N2CC[C@@H](C)C[C@@H]2C(=O)O)C1 (stereo partly shown) [argatroban]	–	survival time [3]: prolonged; tumor mass [3]: reduced
CCCCCCOC(=O)NC(=N)c1ccc(NCc2nc3cc(C(=O)N(CCC(=O)OCC)c4ccccn4)ccc3n2C)cc1 [dabigatran etexilate]	–	invasion and metastasis of malignant breast tumors ([4]; mouse, in vivo): inhibited; reduction of tumor cells in the blood and liver micrometastases ([4]; mouse, in vivo): 50-60%; weight loss ([4]; treated mice, 4 weeks): no weight loss; profibrotic events in lung fibroblasts, including production of collagen and connective tissue growth factor [5]: reduced
N=C(N)c1ccc(CNC(=O)[C@@H]2CCN2C(=O)[C@H](NCC(=O)O)C2CCCCC2)cc1 [melagatran]	–	kidney graft survival ([6]; at 3 months): drastically improved; ischemia reperfusion injury ([6]; kidney transplant model): greatly reduced
[dR][Oic]P[dA][Phe(4-Me)]	–	thrombin-stimulated invasion [7]: block; overall tumor weight ([8]; compared to untreated mice): reduced; rate of tumor growth ([8]; mice dosed through drinking water): reduced
hirudin	–	disease severity [9]: dramatic improvement; number of lung metastases [10]: dramatically reduced; pain responses ([11]; for 7 days): curbed; development of neuropathic pain [11]: prevented

Second part, led by results:

IC50 [1] [nM]	Compound	other results
< 100	O=C(c1ccoc1)n1nc(C2CCNCC2)c(F)c1NCc1ccc(Cl)s1 [Compound 50, N-[(5-chlorothiophen-2-yl)methyl]-4-fluoro-1-(furan-3-carbonyl)-3-(piperidin-4-yl)-1H-pyrazol-5-amine]	–
< 100	O=C(c1ccoc1)n1nc(-c2ccccc2)c(F)c1NCc1ccc(Cl)s1 [Compound 51, N-[(5-chlorothiophen-2-yl)methyl]-4-fluoro-1-(furan-3-carbonyl)-3-phenyl-1H-pyrazol-5-amine]	–
< 100	COCCOc1ccc(C(=O)n2nc(C3CCOCC3)c(F)c2NCc2ccc(Cl)s2)cc1 [Compound 52, N-[(5-chlorothiophen-2-yl)methyl]-4-fluoro-1-[4-(2-methoxyethoxy)benzoyl]-3-(oxan-4-yl)-1H-pyrazol-5-amine]	–
< 100	O=C(c1ccc(N2CCOCC2)cc1)n1nc(C2CCOCC2)c(F)c1NCc1ccc(Cl)s1 [Compound 53, N-[(5-chlorothiophen-2-yl)methyl]-4-fluoro-1-[4-(morpholin-4-yl)benzoyl]-3-(oxan-4-yl)-1H-pyrazol-5-amine]	–
< 100	O=C(c1ccsc1)n1nc(C2CCOCC2)c(F)c1NCc1ccc(Cl)s1 [Compound 54, N-[(5-chlorothiophen-2-yl)methyl]-4-fluoro-3-(oxan-4-yl)-1-(thiophene-3-carbonyl)-1H-pyrazol-5-amine]	–
> 1000	COc1ccccc1C(=O)n1nc(NCc2ccc(Cl)s2)c(F)c1C1CCN(S(=O)(=O)c2cccc3c(N(C)C)cccc23)CC1 [Compound 55, N-[(5-chlorothiophen-2-yl)methyl]-5-(1-[5-(dimethylamino)naphthalen-1-yl]sulfonylpiperidin-4-yl)-4-fluoro-1-(2-methoxybenzoyl)-1H-pyrazol-3-amine]	–
> 1000	COc1ccccc1C(=O)N(Cc1ccc(Cl)s1)c1[nH]nc(-c2ccc3c(c2)CCCC3=O)c1F [Compound 56, N-[(5-chlorothiophen-2-yl)methyl]-N-[4-fluoro-3-(5-oxo-5,6,7,8-tetrahydronaphthalen-2-yl)-1H-pyrazol-5-yl]-2-methoxybenzamide]	–
< 100	CN(C)c1cccc2c(S(=O)(=O)Nc3ccc(C(=O)n4nc(C5CCNCC5)c(F)c4NCc4ccc(Cl)s4)cc3)cccc12 [Compound 57, N-[4-(5-[(5-chlorothiophen-2-yl)methyl]amino-4-fluoro-3-(piperidin-4-yl)-1H-pyrazole-1-carbonyl)phenyl]-5-(dimethylamino)naphthalene-1-sulfonamide]	–
< 100	CN(C)c1cccc2c(S(=O)(=O)Nc3ccc(C(=O)n4nc(-c5ccccc5)c(F)c4NCc4ccc(Cl)s4)cc3)cccc12 [Compound 58, N-[4-(5-[(5-chlorothiophen-2-yl)methyl]amino-4-fluoro-3-phenyl-1H-pyrazole-1-carbonyl)phenyl]-5-(dimethylamino)naphthalene-1-sulfonamide]	–
< 100	COc1ccccc1C(=O)n1nc(-c2ccccn2)c(F)c1NCc1ccccc1 [Compound 59, N-benzyl-4-fluoro-1-(2-methoxybenzoyl)-3-(pyridin-2-yl)-1H-pyrazol-5-amine]	–
< 100	COc1ccccc1C(=O)n1nc(-c2ccccc2)c(F)c1NCc1ccccc1 [Compound 60, N-benzyl-4-fluoro-1-(2-methoxybenzoyl)-3-phenyl-1H-pyrazol-5-amine]	–
< 100	O=C(n1nc(C2CCOCC2)c(F)c1NCc1ccc(Cl)s1)C1(CO)CC1 [Compound 61, [1-(5-[(5-chlorothiophen-2-yl)methyl]amino-4-fluoro-3-(oxan-4-yl)-1H-pyrazole-1-carbonyl)cyclopropyl]methanol]	–
< 100	O=C(n1nc(-c2ccccc2)c(F)c1NCc1ccc(Cl)s1)C1(CO)CC1 [Compound 62, [1-(5-[(5-chlorothiophen-2-yl)methyl]amino-4-fluoro-3-phenyl-1H-pyrazole-1-carbonyl)cyclopropyl]methanol]	–
